Measurements reported in ChEMBL document CHEMBL4823265, “Benzophenones from Betula alnoides with Antiausterity Activities against the PANC-1 Human Pancreatic Cancer Cell Line” (J Nat Prod, 2021).
Calls of active or inactive are those of the source. The calls are words filed in the database; no cut-off is given here.

Tests used:
PANC-1 [1] = assay: Cytotoxicity against human PANC-1 cells assessed as reduction in cell viability incubated for 24 hrs in nutrient-rich DMEM medium by CCK8 assay; format: cell-based; conditions: panc-1, 24 h
PANC-1 [2] = assay: Anti-austerity activity against human PANC-1 cells assessed as cell killing incubated for 24 hrs in nutrient deprived medium by CCK8 assay; format: functional
PANC-1 [3] = assay: Cytotoxicity against human PANC-1 cells assessed as ruptured cell membrane by measuring red fluorescence emission incubated for 24 hrs in nutrient deprived medium by ethidium bromide/acridine orange double staining based fluorescence microscopic analysis; format: functional; conditions: dose 5-10 µM
PANC-1 [4] = assay: Inhibition of colony formation in human PANC-1 cells at 40 uM treated for 24 hrs followed by replacement with fresh DMEM medium and measured after 10 days by crystal violet staining based assay relative to control; format: functional
PANC-1 [5] = assay: Cytotoxicity against human PANC-1 cells assessed as cell death at 10 uM incubated in nutrient deprived medium measured every 15 mins for 23 hrs by time-lapse live imaging based analysis; format: functional
PANC-1 [6] = assay: Cytotoxicity against human PANC-1 cells assessed as membrane blebbing at 10 uM incubated in nutrient deprived medium measured every 15 mins for 13 hrs by time-lapse live imaging based analysis; format: functional, cell-based
PANC-1 [7] = assay: Cytotoxicity against human PANC-1 cells assessed as membrane blebs by measuring red fluorescence emission incubated for 24 hrs in nutrient deprived medium by ethidium bromide/acridine orange double staining based fluorescence microscopic analysis; format: functional, cell-based; conditions: dose 5-10 µM
PANC-1 [8] = assay: Cytotoxicity against human PANC-1 cells assessed as inhibition of cell mobility at 5 to 10 uM incubated in nutrient deprived medium measured every 15 mins for 4 hrs by time-lapse live imaging based analysis; format: functional; conditions: dose 5-10 µM
PANC-1 [9] = assay: Inhibition of colony formation in human PANC-1 cells treated for 24 hrs followed by replacement with fresh DMEM medium and measured after 10 days by crystal violet staining based assay; format: functional, cell-based; conditions: dose 10-40 µM
PANC-1 [10] = assay: Cytotoxicity against human PANC-1 cells assessed as cell shrinkage at 5 to 10 uM incubated in nutrient deprived medium measured every 15 mins for 8 hrs by time-lapse live imaging based analysis; format: functional; conditions: dose 5-10 µM
PANC-1 [11] = assay: Inhibition of colony formation in human PANC-1 cells at 20 uM treated for 24 hrs followed by replacement with fresh DMEM medium and measured after 10 days by crystal violet staining based assay relative to control; format: functional
PANC-1 [12] = assay: Cytotoxicity against human PANC-1 cells assessed as swollen cell morphology by measuring red fluorescence emission incubated for 24 hrs in nutrient deprived medium by ethidium bromide/acridine orange double staining based fluorescence microscopic analysis; format: functional; conditions: dose 5-10 µM
PANC-1 [13] = assay: Inhibition of colony formation in human PANC-1 cells at 10 to 40 uM treated for 24 hrs followed by replacement with fresh DMEM medium and measured after 10 days by crystal violet staining based assay relative to control; format: functional; conditions: dose 10-40 µM

Compound	Activity (PANC-1 [1])	PC50 (PANC-1 [2])	other results
COc1cc2c(=O)c3ccccc3oc2cc1O	Non-Toxic	>100 µM	–
CC(C)(O)[C@@H]1CC[C@@]2(C)C[C@@H]1c1c(O)cc(O)c(C(=O)c3ccccc3)c1O2	Non-Toxic	4.9 µM	Activity (PANC-1 [3]): Dose-Dependent Effect; inhibition at 40 µM (PANC-1 [4]): 64%; Activity (PANC-1 [5]): Active; Activity (PANC-1 [6]): Active; Activity (PANC-1 [7]): Dose-Dependent Effect; Activity (PANC-1 [8]): Active; inhibition (PANC-1 [9]): Dose-Dependent Effect; Activity (PANC-1 [10]): Active; inhibition at 20 µM (PANC-1 [11]): 45%; Activity (PANC-1 [12]): Dose-Dependent Effect
COc1cccc2c(=O)c3c(O)cccc3oc12	Non-Toxic	61 µM	–
CC(C)=CCC/C(C)=C/CC[C@]1(C)CCc2c(O)cc(O)c(C(=O)c3ccccc3)c2O1	Non-Toxic	12.3 µM	–
O=c1c2ccc(O)cc2oc2ccc(O)cc12	Non-Toxic	45.2 µM	–
CC(C)=CCC/C(C)=C/CC[C@@]1(C)Oc2c(c(O)cc(O)c2C(=O)c2ccccc2)C[C@H]1O	Non-Toxic	6.7 µM	–
CC(C)=CCC/C(C)=C/CC/C(C)=C/Cc1c(O)cc(O)c(C(=O)c2ccccc2)c1O	Non-Toxic	8.3 µM	–
O=C(c1ccccc1O)c1cc(O)ccc1O	Non-Toxic	42.5 µM	–
COc1cc(C[C@H]2C(=O)OC[C@@H]2Cc2ccc(OC)c(OC)c2)ccc1O [ARCTIGENIN]	–	0.7 µM	–
CC(C)=CCC/C(C)=C/CC[C@@](C)(O)CCc1c(O)cc(O)c(C(=O)c2ccccc2)c1O	Non-Toxic	5.9 µM	Activity (PANC-1 [3]): Dose-Dependent Effect; Activity (PANC-1 [7]): Dose-Dependent Effect; inhibition (PANC-1 [9]): Dose-Dependent Effect; inhibition (INH) (PANC-1 [13]): >60%; Activity (PANC-1 [12]): Dose-Dependent Effect
